This is an account of results in ChEMBL document CHEMBL1127236, “Synthesis and biological activities of fluorine-substituted ()-indolactam-V, the core structure of tumor promoter teleocidins” (1994).

Assay [1] deals with HeLa. Briefly: Compound was tested for stimulation of the incorporation of 32Pi into phospholipids of HeLa cells at 10E-5 M concentration. The format is functional, Homo sapiens.
Assay [2] deals with HeLa. Nature of the assay: Compound was tested for stimulation of the incorporation of 32Pi into phospholipids of HeLa cells at 10E-6 M concentration. Format: functional, Homo sapiens.
Assay [3] has as its system HeLa. Briefly: Compound was tested for stimulation of the incorporation of 32Pi into phospholipids of HeLa cells at 10E-7 M concentration. The format is functional, Homo sapiens.
For another assay, the species on record is Mus musculus. Briefly: In vitro binding affinity towards TPA receptor in mouse epidermal particulate fraction using [3H]TPA as radioligand.
The subject of assay [4] is HeLa. Nature of the assay: Compound was tested for stimulation of the incorporation of 32Pi into phospholipids of HeLa cells at 10E-8 M concentration. The format is functional, Homo sapiens.
The test system of assay [5] is HeLa. Briefly: Compound was tested for stimulation of the incorporation of 32Pi into phospholipids of HeLa cells at 10E-4 M concentration. The format is functional, Homo sapiens.

As to `CC(C)[C@H]1C(=O)N[C@H](CO)Cc2c[nH]c3cccc(c23)N1C` [INDOLACTUM], the Relativity in the assay with HeLa [1] is given as 7.82 c.p.m. mg-1; in the assay on HeLa [2], 4.69 c.p.m. mg-1; in the assay with HeLa [3], 1.36 c.p.m. mg-1; with HeLa [4], 1.04 c.p.m. mg-1. This compound had a pID50 in the assay listed under Mus musculus of 5.97.
For the compound `CC(C)[C@H]1C(=O)N[C@H](CO)Cc2c[nH]c3ccc(F)c(c23)N1C`, the Relativity in the assay with HeLa [5] was 5.32 c.p.m. mg-1; in the assay with HeLa [1], 3.57 c.p.m. mg-1; with HeLa [2], 1.28 c.p.m. mg-1; with HeLa [3], 1.29 c.p.m. mg-1. Further, in the assay filed under Mus musculus, the pID50 turned out to be 4.41.
Take `CC(C)[C@H]1C(=O)N[C@H](CO)Cc2c[nH]c3cc(F)cc(c23)N1C`: the Relativity in the assay on HeLa [1] turned out to be 6.87 c.p.m. mg-1; in the assay on HeLa [2] it was 7.43 c.p.m. mg-1; in the assay on HeLa [3] it was 1.78 c.p.m. mg-1; in the assay with HeLa [4] it was 1.18 c.p.m. mg-1. For the same compound, the pID50 in the assay listed under Mus musculus was 5.85.
